From patent publication US6455518B2 (Novartis AG, priority 1996, dated 2002)

How the values were obtained:
[1] = tested on: Spleen cells of BALB/c and CBA mice; test: two-way mouse mixed lymphocyte reaction (3H-thymidine incorporation); format: cell-based; settings: single compound; 3H-thymidine incorporation after four days culture
Description: After four days, ^3H-thymidine is added. Sixteen hours later, the cells are harvested and ^3H-thymidine incorporation is measured by liquid scintillation counting. Cell proliferation is assessed in the absence of compounds (100% value) or in the presence of serially diluted compounds or combinations of compounds. The maximum ^3H thymidine incorporation (100% value) is around 240×10^3 cpm, and the background ^3H-thymidine incorporation in unstimulated cells is around 5×10^3 cpm. […] These IC70 values are converted into relative units with regard to the IC70 value of the respective single drug treatment.

kidney allograft = test: orthotopic kidney allotransplantation model (DA donor, Lewis recipient); format: in vivo, rat; settings: for Histology of rejection: kidney
Source text: Kidney transplantation is followed by contralateral nephrectomy 7 days later: at nephrectomy, the graft is macroscopically inspected, and if rejection is macroscopically evident, the experiment is terminated. Surviving animals are monitored daily for clinical signs of renal dysfunction.
(§1) In both the kidney and heart allograft experiments, the termination point in long term survivors is 100 days. In all cases, the graft is removed at autopsy, fixed in buffered formalin, and embedded in paraffin. Four micron thick sections stained with hematoxylin and eosin are read for signs of rejection and scored as “no rejection”, or “marginal”, “slight”, “moderate”, or “severe” cellular rejection based on the extent of mononuclear cell infiltration and damage to the parenchyma (tubules in the kidney, myocytes in the heart).

heart allograft = test: heterotopic heart allotransplantation model (DA donor, Lewis recipient); format: in vivo, rat
Source text: The abdomen is then palpated daily to determine if the graft is still beating; in case of cessation of heartbeat, the experiment is terminated.
as §1

[2] = rat, in vivo, iv
Description: Whole blood concentrations of both compounds are determined by liquid chromatography-reversed isotope dilution (LC-RID).

[3] = heart, 40-O-(2-hydroxyethyl)-rapamycin 5.0 mg/kg daily oral

## CO[C@H]1C[C@@H]2CC[C@@H](C)[C@@](O)(O2)C(=O)C(=O)N2CCCC[C@H]2C(=O)O[C@H]([C@H](C)C[C@@H]2CC[C@@H](OCCO)[C@H](OC)C2)CC(=O)[C@H](C)/C=C(\C)[C@@H](O)[C@@H](OC)C(=O)[C@H](C)C[C@H](C)/C=C/C=C/C=C/1C [40-O-(2-hydroxyethyl)-rapamycin]
[1]
  IC70 (concentration at which the maximum proliferative response is inhibited by 70%): 0.3 nM
Kidney allograft; kidney allograft, single compound treatment, daily oral
  minimum effective dose giving long term allograft survival: 5.0 mg/kg
Kidney allograft; 40-O-(2-hydroxyethyl)-rapamycin 1.0 mg/kg daily oral
  Histology of rejection: moderate-severe
Kidney allograft; 40-O-(2-hydroxyethyl)-rapamycin 2.5 mg/kg daily oral
  Histology of rejection: slight-moderate
Kidney allograft; 40-O-(2-hydroxyethyl)-rapamycin 5.0 mg/kg daily oral
  Histology of rejection: moderate; ≧100 marginal
Heart allograft; heart allograft, single compound treatment, daily oral
  minimum effective dose giving long term allograft survival: > 5.0 mg/kg
Heart allograft; heart, 40-O-(2-hydroxyethyl)-rapamycin 1.0 mg/kg daily oral
  Histology of rejection: severe
Heart allograft; heart, 40-O-(2-hydroxyethyl)-rapamycin 2.5 mg/kg daily oral
  Histology of rejection: moderate
Heart allograft; [3]
  Histology of rejection: moderate
  Survival (days): 22,23 days
[2]
  CL: 3.2 ± 0.3 mL/min
  t1/2: 56 ± 7 h
[2]; 1 mg/kg
  V: 52 ± 3 L/kg
